The target of the test is T1, Cdc7 (BEV coexpressed huCDC7/DBF4) (Homo sapiens, UniProt O00311).
T1 construct: made in house; host or cells: BEV (baculovirus expression vector) co-expression; insect cells are implied but no cell line is named
The experiment in a line: Cdc7 enzyme inhibition assay ([33P]ATP, biotinylated peptide substrate, FlashPlate). It counts as biochemical. Here is the method:
Cdc7 (BEV coexpressed huCDC7/DBF4) is prepared internally. Cdc7 assays are conducted as follows with final concentrations as listed. […] Reactions are quenched after 1 hr by the addition of 90 μL stop buffer (50 mM EDTA, 2M NaCl). […] (Ki) for exemplary compounds.

The mark [1] stands for this setting: Table 3, enzyme inhibition data (Ki).

Structures are written as SMILES. Where two headings read alike, the source gives them in different places.

T1 sequence (O00311 whole entry): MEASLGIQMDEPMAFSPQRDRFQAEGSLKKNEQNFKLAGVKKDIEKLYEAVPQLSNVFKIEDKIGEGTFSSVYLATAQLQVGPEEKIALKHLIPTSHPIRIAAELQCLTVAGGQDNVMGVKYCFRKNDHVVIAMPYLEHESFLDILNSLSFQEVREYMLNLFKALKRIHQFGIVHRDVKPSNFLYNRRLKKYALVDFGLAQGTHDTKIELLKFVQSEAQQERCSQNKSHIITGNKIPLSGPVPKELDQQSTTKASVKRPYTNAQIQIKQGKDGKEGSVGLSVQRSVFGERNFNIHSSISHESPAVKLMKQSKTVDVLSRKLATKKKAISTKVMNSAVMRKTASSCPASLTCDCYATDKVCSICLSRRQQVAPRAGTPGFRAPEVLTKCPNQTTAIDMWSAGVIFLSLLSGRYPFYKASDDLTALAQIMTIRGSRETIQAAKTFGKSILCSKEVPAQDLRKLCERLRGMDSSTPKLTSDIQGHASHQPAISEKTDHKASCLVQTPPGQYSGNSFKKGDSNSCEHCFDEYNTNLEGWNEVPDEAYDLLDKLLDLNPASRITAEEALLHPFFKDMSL
T1 sequence (Q9UBU7 whole entry partner): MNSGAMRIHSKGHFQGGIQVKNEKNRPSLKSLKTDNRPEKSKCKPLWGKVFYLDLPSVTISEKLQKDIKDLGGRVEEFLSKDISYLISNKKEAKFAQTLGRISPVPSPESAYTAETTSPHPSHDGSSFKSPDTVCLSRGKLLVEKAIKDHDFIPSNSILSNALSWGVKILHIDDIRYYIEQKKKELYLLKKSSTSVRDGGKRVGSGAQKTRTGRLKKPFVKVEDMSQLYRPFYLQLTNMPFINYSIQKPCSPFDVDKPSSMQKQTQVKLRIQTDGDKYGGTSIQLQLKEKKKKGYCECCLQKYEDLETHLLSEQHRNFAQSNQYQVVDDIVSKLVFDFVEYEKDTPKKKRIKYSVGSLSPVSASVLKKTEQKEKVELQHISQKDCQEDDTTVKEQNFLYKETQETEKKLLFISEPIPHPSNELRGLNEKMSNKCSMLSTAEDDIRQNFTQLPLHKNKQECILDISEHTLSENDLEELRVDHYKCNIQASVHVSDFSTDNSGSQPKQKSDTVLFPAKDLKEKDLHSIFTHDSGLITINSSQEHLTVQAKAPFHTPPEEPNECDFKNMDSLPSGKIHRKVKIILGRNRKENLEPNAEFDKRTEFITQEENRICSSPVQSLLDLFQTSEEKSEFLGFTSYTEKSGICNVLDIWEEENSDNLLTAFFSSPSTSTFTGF

`COC1CCC(Nc2cc(-c3c[nH]c4ncccc34)cc(Cl)n2)CC1` (stereo not drawn) [Example 34, 6-chloro-N-(4-methoxycyclohexyl)-4-(1H-pyrrolo[2,3-b]pyridin-3-yl)pyridin-2-amine] showed a Ki of 10 to 100 nM.

On to `CC(=O)NC1CCCC(Nc2cc(-c3c[nH]c4ncccc34)cc(Cl)n2)C1` (stereo not drawn) [Example 35, N-(3-{[6-chloro-4-(1H-pyrrolo[2,3-b]pyridin-3-yl)pyridin-2-yl]amino}cyclohexyl)acetamide], for which the Ki is 10 to 100 nM.

The compound `Fc1cc(Cl)ccc1CNc1cc(-c2c[nH]c3ncccc23)cc(Cl)n1` [Example 36, 6-chloro-N-(4-chloro-2-fluorobenzyl)-4-(1H-pyrrolo[2,3-b]pyridin-3-yl)pyridin-2-amine] gave a Ki of 10 to 100 nM. `Clc1cc(-c2c[nH]c3ncccc23)cc(NCc2cccnc2Oc2cccnc2)n1` [Example 37, 6-chloro-N-{[2-(pyridin-3-yloxy)pyridin-3-yl]methyl}-4-(1H-pyrrolo[2,3-b]pyridin-3-yl)pyridin-2-amine] gave a Ki of 10 to 100 nM. On the same count and under the same terms, next, `Clc1cc(-c2c[nH]c3ncccc23)cc(NCC2CCCNC2)n1` (stereo not drawn) [Example 38, 6-chloro-N-(piperidin-3-ylmethyl)-4-(1H-pyrrolo[2,3-b]pyridin-3-yl)pyridin-2-amine]: 10 to 100 nM. As for `CC(O)CNc1cc(-c2c[nH]c3ncccc23)cc(Cl)n1` (stereo not drawn) [Example 39, 1-{[6-chloro-4-(1H-pyrrolo[2,3-b]pyridin-3-yl)pyridin-2-yl]amino}propan-2-ol], the inhibition constant Ki lay within 10 to 100 nM.

The compound `CC(C)(CO)CNc1cc(-c2c[nH]c3ncccc23)cc(Cl)n1` [Example 40, 3-{[6-chloro-4-(1H-pyrrolo[2,3-b]pyridin-3-yl)pyridin-2-yl]amino}-2,2-dimethylpropan-1-ol] showed a Ki of 10 to 100 nM.

`OCCOCCNc1cc(-c2c[nH]c3ncccc23)cc(Cl)n1` [Example 41, 2-(2-{[6-chloro-4-(1H-pyrrolo[2,3-b]pyridin-3-yl)pyridin-2-yl]amino}ethoxy)ethanol] displayed a Ki of 10 to 100 nM. For `N[C@H]1CC[C@H](Nc2nc(Cl)cc(-c3c[nH]c4ncccc34)n2)CC1` [Example 42, trans-N-[4-chloro-6-(1H-pyrrolo[2,3-b]pyridin-3-yl)pyrimidin-2-yl]cyclohexane-1,4-diamine], the Ki is < 10 nM. As to `O[C@H]1CC[C@H](Nc2nc(Cl)cc(-c3c[nH]c4ncccc34)n2)CC1` [Example 44, Trans-4-{[4-chloro-6-(1H-pyrrolo[2,3-b]pyridin-3-yl)pyrimidin-2-yl]amino}cyclohexanol], the Ki was < 10 nM. For `Clc1cc(-c2c[nH]c3ncccc23)nc(NCc2ccccc2)n1` [Example 46, N-benzyl-4-chloro-6-(1H-pyrrolo[2,3-b]pyridin-3-yl)pyrimidin-2-amine], the inhibition constant Ki lay in the range of 10 to 100 nM.

The compound `OCC(Cc1ccccc1)Nc1nc(Cl)cc(-c2c[nH]c3ncccc23)n1` (stereo not drawn) [Example 47, 2-{[4-chloro-6-(1H-pyrrolo[2,3-b]pyridin-3-yl)pyrimidin-2-yl]amino}-3-phenylpropan-1-ol] gave a Ki of 10 to 100 nM.

With `COC[C@H](Cc1ccccc1)Nc1nc(Cl)cc(-c2c[nH]c3ncccc23)n1` [Example 48, (S)-4-chloro-N-(1-methoxy-3-phenylpropan-2-yl)-6-(1H-pyrrolo[2,3-b]pyridine-3-yl)pyrimidin-2-amine], the Ki is 10 to 100 nM. The same measure, in the same setting: next, `Clc1cc(-c2c[nH]c3ncccc23)nc(NC2CCCCC2)n1` [Example 49, 4-chloro-N-cyclohexyl-6-(1H-pyrrolo[2,3-b]pyridin-3-yl)pyrimidin-2-amine]: < 10 nM. Regarding `CS(=O)(=O)N1CCC(Nc2cc(-c3c[nH]c4ncccc34)cc(Cl)n2)CC1` [Example 51, 6-chloro-N-[1-(methylsulfonyl)piperidin-4-yl]-4-(1H-pyrrolo[2,3-b]pyridin 3-yl)pyridin-2-amine], under setting [1], the Ki was < 10 nM. With `O=S(=O)(NC1CCC(Nc2cc(-c3c[nH]c4ncccc34)cc(Cl)n2)CC1)c1ccccc1` (stereo not drawn) [Example 52, N-(4-{[6-chloro-4-(1H-pyrrolo[2,3-b]pyridin-3-yl)pyridin-2-yl]amino}cyclohexyl)benzenesulfonamide], the Ki under setting [1] is < 10 nM.

Turning to `O=S(=O)(Cc1ccccc1)NC1CCC(Nc2cc(-c3c[nH]c4ncccc34)cc(Cl)n2)CC1` (stereo not drawn) [Example 53, N-(4-{[6-chloro-4-(1H-pyrrolo[2,3-b]pyridin-3-yl)pyridin-2-yl]amino}cyclohexyl)-1-phenylmethanesulfonamide], the Ki under setting [1] was < 10 nM. In the case of `O=S(=O)(NC1CCC(Nc2cc(-c3c[nH]c4ncccc34)cc(Cl)n2)CC1)c1cccnc1` (stereo not drawn) [Example 54, N-(4-{[6-chloro-4-(1H-pyrrolo[2,3-b]pyridin-3-yl)pyridin-2-yl]amino}cyclohexyl)pyridine-3-sulfonamide], the Ki under setting [1] was < 10 nM.

In the case of `CCCS(=O)(=O)NC1CCC(Nc2cc(-c3c[nH]c4ncccc34)cc(Cl)n2)CC1` (stereo not drawn) [Example 55, N-(4-{[6-chloro-4-(1H-pyrrolo[2,3-b]pyridin-3-yl)pyridin-2-yl]amino}cyclohexyl)propane-1-sulfonamide], the Ki under setting [1] was < 10 nM.

Turning to `Clc1cc(-c2c[nH]c3ncccc23)cc(NCCN2CCOCC2)n1` [Example 56, 6-chloro-N-[2-(morpholin-4-yl)ethyl]-4-(1H-pyrrolo[2,3-b]pyridin-3-yl)pyridin-2-amine], under setting [1], the Ki is < 10 nM. For the compound `Oc1cccc(CCNc2cc(-c3c[nH]c4ncccc34)cc(Cl)n2)c1` [Example 57, 3-(2-{[6-chloro-4-(1H-pyrrolo[2,3-b]pyridin-3-yl)pyridin-2-yl]amino}ethyl)phenol], under setting [1], the Ki was < 10 nM. As to `CC(C)CNC1CCCC(Nc2cc(-c3c[nH]c4ncccc34)cc(Cl)n2)C1` (stereo not drawn) [Example 58, N-[6-chloro-4-(1H-pyrrolo[2,3-b]pyridin-3-yl)pyridin-2-yl]-N′-(2-methylpropyl)cyclohexane-1,3-diamine], the Ki under setting [1] is < 10 nM. For `CN(C)C1CCCC(Nc2cc(-c3c[nH]c4ncccc34)cc(Cl)n2)C1` (stereo not drawn) [Example 59, N′-[6-chloro-4-(1H-pyrrolo[2,3-b]pyridin-3-yl)pyridin-2-yl]-N,N-dimethylcyclohexane-1,3-diamine], the Ki under setting [1] is < 10 nM. In the case of `O=C(NC1CCCC1)NC1CCC(Nc2cc(-c3c[nH]c4ncccc34)cc(Cl)n2)CC1` (stereo not drawn) [Example 60, 1-(4-{[6-chloro-4-(1H-pyrrolo[2,3-b]pyridin-3-yl)pyridin-2-yl]amino}cyclohexyl)-3-cyclopentylurea], under setting [1], the inhibitory constant (Ki) was < 10 nM. As to `O=S(=O)(N[C@H]1CC[C@H](Nc2cc(-c3c[nH]c4ncccc34)cc(Cl)n2)CC1)C1CC1` [Example 61, N-(trans-4-{[6-chloro-4-(1H-pyrrolo[2,3-b]pyridin-3-yl)pyridin-2-yl]amino}cyclohexyl)cyclopropanesulfonamide], the Ki under setting [1] was < 10 nM. Same read-out and setting: next, `CCCNC(=O)NC1CCC(Nc2cc(-c3c[nH]c4ncccc34)cc(Cl)n2)CC1` (stereo not drawn) [Example 62, 1-(4-{[6-chloro-4-(1H-pyrrolo[2,3-b]pyridin-3-yl)pyridin-2-yl]amino}cyclohexyl)-3-propylurea]: < 10 nM. For `O=C(N[C@H]1CC[C@H](Nc2cc(-c3c[nH]c4ncccc34)cc(Cl)n2)CC1)C1CC1` [Example 63, N-(trans-4-{[6-chloro-4-(1H-pyrrolo[2,3-b]pyridin-3-yl)pyridin-2-yl]amino}cyclohexyl)cyclopropanecarboxamide], the Ki under setting [1] was < 10 nM. Consider `CC(C)C(=O)NC1CCC(Nc2cc(-c3c[nH]c4ncccc34)cc(Cl)n2)CC1` (stereo not drawn) [Example 64, N-(4-{[6-chloro-4-(1H-pyrrolo[2,3-b]pyridin-3-yl)pyridin-2-yl]amino}cyclohexyl)-2-methylpropanamide], for which the Ki under setting [1] is < 10 nM. Regarding `O=C(NC1CCC(Nc2cc(-c3c[nH]c4ncccc34)cc(Cl)n2)CC1)c1ccccc1` (stereo not drawn) [Example 65, N-(4-{[6-chloro-4-(1H-pyrrolo[2,3-b]pyridin-3-yl)pyridin-2-yl]amino}cyclohexyl)benzamide], the Ki under setting [1] was < 10 nM. On the same count and under the same terms, next, `O=C(Nc1ccccc1)NC1CCC(Nc2cc(-c3c[nH]c4ncccc34)cc(Cl)n2)CC1` (stereo not drawn) [Example 66, 1-(4-{[6-chloro-4-(1H-pyrrolo[2,3-b]pyridin-3-yl)pyridin-2-yl]amino}cyclohexyl)-3-phenylurea]: < 10 nM; `Clc1cc(-c2c[nH]c3ncccc23)cc(NC2CCCC(NCc3cccnc3)C2)n1` (stereo not drawn) [Example 67, N-[6-chloro-4-(1H-pyrrolo[2,3-b]pyridin-3-yl)pyridin-2-yl]-N′-(pyridin-3-ylmethyl)cyclohexane-1,3-diamine]: < 10 nM. For `Clc1cc(-c2c[nH]c3ncccc23)cc(NC2CCCC(NC3CCC3)C2)n1` (stereo not drawn) [Example 68, N-[6-chloro-4-(1H-pyrrolo[2,3-b]pyridin-3-yl)pyridin-2-yl]-1-N′-cyclobutylcyclohexane-1,3-diamine], under setting [1], the Ki is < 10 nM. On to `O=C(NC1CCCC(Nc2cc(-c3c[nH]c4ncccc34)cc(Cl)n2)C1)C1CC1` (stereo not drawn) [Example 69, N-(3-{[6-chloro-4-(1H-pyrrolo[2,3-b]pyridin-3-yl)pyridin-2-yl]amino}cyclohexyl)cyclopropanecarboxamide], for which, under setting [1], the Ki is < 10 nM. Turning to `CCCN1CCC(C(=O)NC2CCCC(Nc3cc(-c4c[nH]c5ncccc45)cc(Cl)n3)C2)CC1` (stereo not drawn) [Example 70, N-(3-{[6-chloro-4-(1H-pyrrolo[2,3-b]pyridin-3-yl)pyridin-2-yl]amino}cyclohexyl)-1-propylpiperidine-4-carboxamide], the Ki under setting [1] is < 10 nM. On to `O=C(NC1CCCC(Nc2cc(-c3c[nH]c4ncccc34)cc(Cl)n2)C1)c1cc[nH]n1` (stereo not drawn) [Example 71, N-(3-{[6-chloro-4-(1H-pyrrolo[2,3-b]pyridin-3-yl)pyridin-2-yl]amino}cyclohexyl)-1H-pyrazole-3-carboxamide], for which the inhibition constant (Ki) under setting [1] is < 10 nM. As for `Clc1cc(-c2c[nH]c3ncccc23)cc(NC2CCCC(NCC3CCCNC3)C2)n1` (stereo not drawn) [Example 72, N-[6-chloro-4-(1H-pyrrolo[2,3-b]pyridin-3-yl)pyridin-2-yl]-N′-(piperidin-3-ylmethyl)cyclohexane-1,3-diamine], the Ki under setting [1] is < 10 nM.
